The source of these data is patent US7470794B2, “Preparation and use of ortho-sulfonamido aryl hydroxamic acids as matrix metalloproteinase inhibitors” (Wyeth, priority 2000, dated 2008).

pIC50: −log10 of the molar value. Read-outs that look alike come from different tables or passages of the source.

For series [1], the target named is T1, MMP-1 (Homo sapiens, UniProt P03956).
T1 sequence (P03956 100-469): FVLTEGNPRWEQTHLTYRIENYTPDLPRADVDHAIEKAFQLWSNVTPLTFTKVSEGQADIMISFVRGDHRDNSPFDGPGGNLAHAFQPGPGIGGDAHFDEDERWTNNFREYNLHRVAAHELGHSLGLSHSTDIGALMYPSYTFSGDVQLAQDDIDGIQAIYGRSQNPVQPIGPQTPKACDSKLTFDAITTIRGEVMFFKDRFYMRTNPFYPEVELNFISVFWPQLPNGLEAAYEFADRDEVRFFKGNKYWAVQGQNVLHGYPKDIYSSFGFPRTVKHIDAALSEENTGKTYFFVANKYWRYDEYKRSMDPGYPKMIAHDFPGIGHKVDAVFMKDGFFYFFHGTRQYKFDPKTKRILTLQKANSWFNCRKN
As to the kind of experiment: MMP-1 inhibition (thiopeptide or fluorescent peptide substrate assay). The format is biochemical. As to conditions: for IC50: cells printed in μM. As to the method:
(§1) These assays are based on the cleavage of a thiopeptide substrates such as Ac-Pro-Leu-Gly(2-mercapto-4-methyl-pentanoyl)-Leu-Gly-OEt by the matrix metalloproteinases MMP-1, MMP-13 (collagenases) or MMP-9 (gelatinase), which results in the release of a substrate product that reacts colorimetrically with DTNB (5,5′-dithiobis(2-nitro-benzoic acid)). The enzyme activity is measured by the rate of the color increase. The thiopeptide substrate is made up fresh as a 20 mM stock in 100% DMSO and the DTNB is dissolved in 100% DMSO as a 100 mM stock and stored in the dark at room temperature. Both the substrate and DTNB are diluted together to 1 mM with substrate buffer (50 mM HEPES pH 7.5, 5 mM CaCl2) before use. The stock of enzyme is diluted with assay buffer (50 mM HEPES, pH 7.5, 5 mM CaCl2, 0.02% Brij) to the desired final concentration. The assay buffer, enzyme, vehicle or inhibitor, and DTNB/substrate are added in this order to a 96 well plate (total reaction volume of 200 μl) and the increase in color is monitored spectrophotometrically for 5 minutes at 405 nm on a plate reader and the increase in color over time is plotted as a linear line.
(§2) Alternatively, a fluorescent peptide substrate is used. In this assay, the peptide substrate contains a fluorescent group and a quenching group. Upon cleavage of the substrate by an MMP, the fluorescence that is generated is quantitated on the fluorescence plate reader. The assay is run in HCBC assay buffer (50 mM HEPES, pH 7.0, 5 mM Ca^+2, 0.02% Brij, 0.5% Cysteine), with human recombinant MMP-1, MMP-9, or MMP-13. The substrate is dissolved in methanol and stored frozen in 1 mM aliquots. For the assay, substrate and enzymes are diluted in HCBC buffer to the desired concentrations. Compounds are added to the 96 well plate containing enzyme and the reaction is started by the addition of substrate. The reaction is read (excitation 340 nm, emission 444 nm) for 10 min. and the increase in fluorescence over time is plotted as a linear line.
(§3) For either the thiopeptide or fluorescent peptide assays, the slope of the line is calculated and represents the reaction rate. The linearity of the reaction rate is confirmed (r^2>0.85). The mean (x±sem) of the control rate is calculated and compared for statistical significance (p<0.05) with drug-treated rates using Dunnett's multiple comparison test. Dose-response relationships can be generated using multiple doses of drug and IC50 values with 95% CI are estimated using linear regression.

Series [2] addresses MMP-9 (Homo sapiens, UniProt P14780). The series is described as follows: MMP-9 inhibition (thiopeptide or fluorescent peptide substrate assay). The format is biochemical. The procedure:
as §1, §2, §3

For series [3], the target named is MMP-13 (Homo sapiens, UniProt P45452). As to the kind of experiment: MMP-13 inhibition (thiopeptide or fluorescent peptide substrate assay). The format is biochemical. As to the method:
as §1, §2, §3

Series [4] deals with T2, tumor necrosis factor-alpa converting enzyme (TACE; Immunex) (Homo sapiens, UniProt P78536).
T2 construct: purchased Immunex
The series is described as follows: TACE inhibition (fluorescent peptidyl substrate assay). The settings on record: 1 μM test compound. The format is biochemical. As to the method:
Using 96-well black microtiter plates, each well receives a solution composed of 10 μL tumor necrosis factor-alpa converting enzyme (TACE; Immunex, final concentration 1 μg/mL), 70 μL Tris buffer, pH 7.4 containing 10% glycerol (final concentration 10 mM), and 10 μL of test compound solution in DMSO (final concentration 1 μM, DMSO concentration <1%) and incubated for 10 minutes at room temperature. The reaction is initiated by addition of a fluorescent peptidyl substrate (final concentration 100 μM) to each well and then shaking on a shaker for 5 sec.
The reaction is read (excitation 340 nm, emission 420 nm) for 10 min. and the increase in fluorescence over time is plotted as a linear line. The slope of the line is calculated and represents the reaction rate.
The linearity of the reaction rate is confirmed (r^2>0.85). The mean (x±sem) of the control rate is calculated and compared for statistical significance (p<0.05) with drug-treated rates using Dunnett's multiple comparison test. Dose-response relationships can be generate using multiple doses of drug and IC50 values with 95% CI are estimated using linear regression.

Sequence of MMP-9 (P14780 94-707): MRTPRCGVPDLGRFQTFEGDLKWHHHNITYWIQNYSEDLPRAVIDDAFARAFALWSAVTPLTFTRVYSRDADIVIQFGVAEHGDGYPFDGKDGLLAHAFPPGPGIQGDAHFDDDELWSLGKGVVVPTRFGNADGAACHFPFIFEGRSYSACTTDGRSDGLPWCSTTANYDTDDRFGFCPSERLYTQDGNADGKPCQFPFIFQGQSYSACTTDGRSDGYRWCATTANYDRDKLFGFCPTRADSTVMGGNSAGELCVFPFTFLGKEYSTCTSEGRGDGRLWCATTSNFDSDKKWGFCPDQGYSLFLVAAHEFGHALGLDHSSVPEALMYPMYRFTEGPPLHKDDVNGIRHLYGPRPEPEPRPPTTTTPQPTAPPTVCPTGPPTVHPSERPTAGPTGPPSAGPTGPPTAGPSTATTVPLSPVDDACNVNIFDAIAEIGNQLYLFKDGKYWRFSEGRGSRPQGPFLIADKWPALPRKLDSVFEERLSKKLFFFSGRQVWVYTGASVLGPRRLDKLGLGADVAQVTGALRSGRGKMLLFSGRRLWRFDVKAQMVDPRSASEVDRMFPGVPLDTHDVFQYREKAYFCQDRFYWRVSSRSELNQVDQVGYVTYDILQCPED
T2 sequence (P78536 215-824): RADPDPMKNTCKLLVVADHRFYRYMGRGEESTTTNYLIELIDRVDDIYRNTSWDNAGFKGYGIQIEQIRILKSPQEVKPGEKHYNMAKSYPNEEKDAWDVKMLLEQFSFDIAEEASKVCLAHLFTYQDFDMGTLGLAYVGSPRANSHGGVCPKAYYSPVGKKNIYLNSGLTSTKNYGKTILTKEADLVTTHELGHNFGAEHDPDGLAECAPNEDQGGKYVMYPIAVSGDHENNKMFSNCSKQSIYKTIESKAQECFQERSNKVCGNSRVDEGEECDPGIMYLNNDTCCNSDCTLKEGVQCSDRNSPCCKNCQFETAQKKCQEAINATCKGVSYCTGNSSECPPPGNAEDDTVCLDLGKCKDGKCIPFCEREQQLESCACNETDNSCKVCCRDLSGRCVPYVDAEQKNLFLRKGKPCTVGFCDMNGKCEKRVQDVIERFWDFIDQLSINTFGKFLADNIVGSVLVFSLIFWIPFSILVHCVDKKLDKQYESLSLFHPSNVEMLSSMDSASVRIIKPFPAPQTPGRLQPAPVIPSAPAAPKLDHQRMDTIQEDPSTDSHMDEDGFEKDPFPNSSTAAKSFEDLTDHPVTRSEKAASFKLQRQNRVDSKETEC

The molecule `Cc1cccc(C(=O)NO)c1N(C)S(=O)(=O)c1ccc(OCCNC(=O)c2ccc3ccccc3n2)cc1` [Example 4, Quinoline-2-carboxylic acid(2-{4-[(2-hydroxycarbamoyl-6-methyl-phenyl)-methyl-sulfamoyl]-phenoxy}-ethyl)-amide] yielded a melting point of 114 to 121 °C. In series [1], this molecule showed a pIC50 of 5.37. In addition, the pIC50 in series [2] is 6.47. The pIC50 in series [3] is 7.14. At 1 µM the inhibition in series [4] was 19.9%.
`Cc1cccc(C(=O)NO)c1N(C)S(=O)(=O)c1ccc(OCCCNC(=O)c2cc3ccccc3o2)cc1` [Example 6, Benzofuran-2-carboxylic acid(3-{4-[(2-hydroxycarbamoyl-6-methyl-phenyl)-methyl-sulfamoyl]-phenoxy}-propyl)-amide] returned a melting point of 148 to 150 °C. In addition, the pIC50 in series [1] was 5.26. The same molecule had a pIC50 in series [2] of 6.29. The molecule also had a pIC50 in series [3] of 8.31. Besides, the inhibition at 1 µM in series [4] is 21.3%.
In the case of `Cc1cccc(C(=O)NO)c1N(C)S(=O)(=O)c1ccc(OCCCCNC(=O)c2cc3ccccc3o2)cc1` [Example 8, Benzofuran-2-carboxylic acid(4-{4-[(2-hydroxycarbamoyl-6-methyl-phenyl)-methyl-sulfamoyl]-phenoxy}-butyl)-amide], the melting point lay in the range of 131 to 134 °C. Further, in series [1], the negative-log IC50 (pIC50) was 5.29. In addition, the pIC50 in series [2] is 7.08. Also, the pIC50 in series [3] was 6.33. In addition, at 1 µM the inhibition in series [4] was 43.6%.
In the case of `Cc1cccc(C(=O)NO)c1N(C)S(=O)(=O)c1ccc(OCCCNC(=O)c2cc3ccccc3[nH]2)cc1` [Example 10, 1H-Indole-2-carboxylic acid(3-{4-[(2-hydroxycarbamoyl-6-methyl-phenyl)-methyl-sulfamoyl]-phenoxy}-propyl)-amide], the melting point lay within 144 to 146 °C. This molecule also showed a pIC50 in series [1] of 5.25. This molecule had a pIC50 in series [2] of 6.52. The pIC50 in series [3] is 6.75. In addition, at 1 µM the inhibition in series [4] was 35.7%.
In turn, `Cc1cccc(C(=O)NO)c1N(C)S(=O)(=O)c1ccc(OCCNC(=O)c2cc3ccccc3s2)cc1` [Example 12, Benzo[b]thiophene-2-carboxylic acid(2-{4-[(2-hydroxycarbamoyl-6-methyl-phenyl)-methyl-sulfamoyl]-phenoxy}-ethyl)-amide] came in with a melting point of 169 to 171 °C. The IC50 in series [1] was over 10 µM. In series [2], this molecule gave a pIC50 of 6.04. This molecule showed a pIC50 in series [3] of 6.23. The same molecule showed an inhibition at 1 µM in series [4] of 15.2%.
`Cc1cccc(C(=O)NO)c1N(C)S(=O)(=O)c1ccc(OCCCNC(=O)c2ccc3c(c2)OCO3)cc1` [Example 14, N-{3-[4-({2-[(hydroxyamino)carbonyl]-6, N-dimethylanilino}sulfonyl)phenoxy]propyl}-1,3-benzodioxole-5-carboxamide] had a melting point of 102 to 112 °C. In addition, the pIC50 in series [1] was 5.83. This molecule had a negative-log IC50 (pIC50) in series [2] of 7.20. In series [3], this molecule had a pIC50 of 6.96. In addition, the inhibition at 1 µM in series [4] was determined as 42.1%.
Molecule `Cc1cccc(C(=O)NO)c1N(C)S(=O)(=O)c1ccc(OCCCNC(=O)c2cc3ccccc3s2)cc1` [Example 27, N-{3-[4-({2-[(Hydroxyamino)carbonyl]-6-dimethylanilino}-sulfonyl)phenoxy]propyl}-1-benzothiophene-2-carboxamide] gave a melting point of 100 to 105 °C. Besides, the IC50 in series [1] amounted to 30 µM. The pIC50 in series [2] is 5.86. Moreover, in series [3], the pIC50 was 7.37. In series [4], this molecule registered an inhibition at 1 µM of 22%.
As for `Cc1cc(C)c(N(Cc2ccccc2)S(=O)(=O)c2ccc(OCCNC(=O)c3cc4ccccc4o3)cc2)c(C(=O)NO)c1` [Example 31, Benzofuran-2-carboxylic acid(2-{4-[benzyl-(2-hydroxycarbamoyl-4,6-dimethyl-phenyl)-sulfamoyl]-phenoxy}-ethyl)-amide], the pIC50 in series [3] was 7.77. This molecule also gave an inhibition at 1 µM in series [4] of 18.9%.
In the case of “N-{4-[4-({2-[(hydroxyamino)carbonyl]-6, N-dimethylanilino}sulfonyl)phenoxy]butyl}-1,3-benzodioxole-5-carboxamide [Example 16]”, the pIC50 in series [1] is 6.00; in series [2] it was 7.25; in series [3], 7.08. The “TACE % inhibition @ 1 μM” value in series [4] is reported as 27.4%.
